The test system of one series is Lovo. Kind of series: MTT cytotoxicity assay, Lovo. As to conditions: Homo sapiens, 96 h compound exposure, read-out: absolute IC50, Lovo. It is filed as cell-based. From the text:
(§1) Lovo: cell line derived from a metastatic site in a patient with colon cancer MCF7: human oestrogen sensitive mammary epithelial cell line PC3: human prostate cancer cell line A549: cancerous lung tissue derived cells L1210: lymphoblast cell line derived from a mouse with lymphocytic leukaemia FM3A: mammary carcinoma murine cells CEM: human T-lymphoblasts, derived from the blood of a patient with acute lymphoblastic leukaemia HeLa: epithelial cells from a patient with cervical adenocarcinoma
(§2) Anti-tumour evaluation in MCF7, LoVo, A549 and PC3 cell lines was performed by MTT assay. Compounds were prepared as 0.1-100 mM stock solutions dissolved in DMSO and stored at −20° C. Cells were seeded into 96-well microtitre plates at a density of 5×10^3 cells per well and allowed 24 hours to adhere. Decimal compound dilutions were prepared in medium immediately prior to each assay (final concentration 0.1-100 μM). Experimental medium was DMEM+10% FCS (PC3 and Lovo) or RPMI+10% heat inactivated FCS (A549 and MCF7). Following 96 h compound exposure at 37° C., 5% CO2, MTT reagent (Sigma Aldrich) was added to each well (final concentration 0.5 mg/ml). Incubation at 37° C. for 4 h allowed reduction of MTT by viable cells to an insoluble formazan product. MTT was removed and formazan solubilised by addition of 10% Triton X-100 in PBS. Absorbance was read on a Tecan Sunrise spectrophotometer at 540 nm as a measure of cell viability; thus inhibition relative to control was determined (IC50).

A further series concerns Murine leukemia L1210. Kind of series: Cell proliferation (Coulter count) assay, L1210. It is filed as cell-based. As to conditions: Mus musculus, 48 h, read-out: absolute IC50, L1210.
Text: as §1
(§3) Murine leukemia L1210, human T-lymphocyte CEM, and human cervix carcinoma HeLa cells were obtained from the American Type Culture Collection (ATCC) (Rockville, Md.). All cells were maintained in Dulbecco's modified Eagle's medium (DMEM) (Invitrogen, Carlsbad, Calif.) with 10% fetal bovine serum (FBS) (Biochrom AG, Berlin, Germany), 10 mM Hepes, and 1 mM sodiumpyruvate (Invitrogen). Cells were grown at 37° C. in a humidified incubator with a gas phase of 5% CO2. Monolayer cells (HeLa and […]) were seeded in 96-well microtiter plates (Nunc, Roskilde, Denmark) at 10 000 cells/well. After 24 h, an equal volume of fresh medium containing the test compounds was added. On day 5, cells were trypsinized and counted in a Coulter counter (Analis, Suarlee, Belgium). Suspension cells (L1210, CEM) were seeded in 96-well microtiter plates (Nunc) at 60 000 cells/well in the presence of a given amount of the test compounds. The cells were allowed to proliferate for 48 h (L1210) or 72 h (CEM) and were then counted in a Coulter counter. The 50% inhibitory concentration (IC50) was defined as the compound concentration required to reduce cell proliferation by 50%. The cytostatic activity of the compounds was determined after 3 days, as outlined above.

The next series concerns MCF7. Nature of the series: MTT cytotoxicity assay, MCF7. As to conditions: Homo sapiens, 96 h compound exposure, read-out: absolute IC50, MCF7. It counts as cell-based.
Text: as §1, §2
In general terms: Formazan colour is commonly taken as a measure of viable cells.

A further series relates to FM3A. Nature of the series: Cytotoxicity, FM3A. It counts as cell-based, murine. As to conditions: Mus musculus, read-out: absolute IC50, FM3A.
Text: as §1

For series [1], the system named is human cervix carcinoma HeLa cells. Kind of series: Cell proliferation (Coulter count) assay, HeLa. It is filed as cell-based. As to conditions: 120 h, cell count on day 5, read-out: absolute IC50, HeLa.
Text: as §1, §3

Another series deals with A549. Kind of series: MTT cytotoxicity assay, A549. It counts as cell-based. As to conditions: Homo sapiens, 96 h compound exposure, read-out: absolute IC50, A549.
Text: as §1, §2

In another series the test system is PC3. Kind of series: MTT cytotoxicity assay, PC3. As to conditions: Homo sapiens, PC-3, 96 h compound exposure, read-out: absolute IC50, PC3. It is filed as cell-based.
Text: as §1, §2

The subject of the next series is human T-lymphocyte CEM. Nature of the series: Cell proliferation (Coulter count) assay, CEM. It is filed as cell-based. As to conditions: 72 h, read-out: absolute IC50, CEM.
Text: as §1, §3

The subject of another series is KG1a cell line. Nature of the series: Annexin V/propidium iodide cytotoxicity, KG1a unsorted. It is filed as cell-based. As to conditions: for cytotoxic potency compared in words: KG1a, versus 8-chloroadenosine or other isomers (FIG. 1, FIG. 7); for LD50: Homo sapiens, KG-1a, Annexin V/propidium iodide, 72 hrs. As to the method: (§4) A further comparative analysis of the toxicity of compounds in the KG1a cell line over an extended dose range was carried out, and the relative effect assessed of the compounds on the leukaemic stem cell compartment within the KG1a cell line, across the entire dose range. Thus, experimental tests were performed on certain compounds of the present invention to assess their ability to target cancer stem cells in a leukaemic cell line. The acute myeloid leukaemia (AML) cell line, KG1a, was employed to assess the relative effect of compounds on the stem cell compartment. The KG1a cell line was selected because it manifests a minor stem cell-like compartment with a distinct immunophenotype (Lin^−/CD34^+/CD38^−/CD123^+).
(§5) Cells of the KG1a cell line were maintained in RPMI medium (Invitrogen, Paisley, UK) supplemented with 100 units/ml penicillin, 100 μg/ml streptomycin and 20% foetal calf serum. Cells were subsequently aliquoted (10^5 cells/100 μl) into 96-well plates and were incubated at 37° C. in a humidified 5% carbon dioxide atmosphere for 72 hrs in the presence of nucleoside analogues and their respective nucleotide analogues (known as ProTides) at concentrations that were experimentally determined for each series of compounds. In addition, control cultures were carried out to which no drug was added. Cells were subsequently harvested by centrifugation and were analyzed by flow cytometry using the Annexin V assay.
Cultured cells were harvested by centrifugation and then resuspended in 195 μl of calcium-rich buffer. Subsequently, 5 μl of Annexin V (Caltag Medsystems, Botolph Claydon, UK) was added to the cell suspension and cells were incubated in the dark for 10 mins prior to washing. Cells were finally resuspended in 190 μl of calcium-rich buffer together with 10 μl of propidium iodide. Apoptosis was assessed by dual-colour immunofluorescent flow cytometry as described previously. Subsequently LD50 values (the dose required to kill 50% of the cells in a culture) were calculated for each nucleoside analogue and ProTide.
(§6) The data obtained in these experiments were evaluated using one way ANOVA. All data was confirmed as Gaussian or a Gaussian approximation using the omnibus K2 test. LD50 values were calculated from the non-linear regression and line of best-fit analysis of the sigmoidal dose-response curves. All statistical analyses were performed using Graphpad Prism 6.0 software (Graphpad Software Inc., San Diego, Calif.).

Series [2] concerns KG1a leukaemic stem cell compartment (Lin−/CD34+/CD38−/CD123+). Nature of the series: Leukaemic stem cell compartment in KG1a. As to conditions: for targeting of leukaemic/cancer stem cells in words: KG1a, compared to 8-chloroadenosine (FIG. 2, FIG. 8); for Change relative to control (%): % LSC compartment versus the series' control; for KG-1a (CD34+/CD38−/CD123+) % compartment: LSC as percentage of viable cells left, 72 hrs. It counts as cell-based. On the procedure: as §4, §5
KG1a cells were cultured for 72 hrs in the presence of a wide range of concentrations of each compound assayed. Cells were then harvested and labelled with a cocktail of anti-lineage antibodies (PE-cy7), anti-CD34 (FITC), anti-CD38 (PE) and anti-CD123 (PERCP cy5). The sub-population expressing a leukaemic stem cell (LSC) phenotype were subsequently identified and were expressed as a percentage of all viable cells left in the culture. The percentages of stem cells remaining were then plotted on a dose-response graph and the effects of the compounds were compared with 8-chloroadenosine.
as §6

Each structure is given as a SMILES string.

Consider `Nc1ncnc2c1nc(Cl)n2[C@@H]1O[C@H](COP(=O)(N[C@@H](Cc2ccccc2)C(=O)OCc2ccccc2)Oc2ccccc2)C(O)C1O` (stereo partly drawn) [U, 5′-([(Benzyloxy-L-phenylalanin-N-yl)-phenyl]-phosphatyl) 8-chloroadenosine], for which the IC50 (in general, the concentration that gives 50% inhibition) was in the range of 0.1 to 5 µM with Lovo; 15 to 100 µM in the series on Murine leukemia L1210; 0.1 to 5 µM in the series with MCF7; 15 to 100 µM with FM3A; 0.1 to 5 µM in series [1]; 0.1 to 5 µM with A549. Also, the IC50 with PC3 fell in the range of 0.1 to 5 µM; with human T-lymphocyte CEM, 5 to 15 µM.
Take `C[C@@H](NP(=O)(OC[C@H]1O[C@@H](n2c(Cl)nc3c(N)ncnc32)C(O)C1O)Oc1ccccc1)C(=O)OCc1ccccc1` (stereo partly drawn) [T, 5′-([(Benzyloxy-D-alanin-N-yl)-phenyl]-phosphatyl) 8-chloroadenosine]: the IC50 with Lovo is 0.1 to 5 µM; in the series on Murine leukemia L1210 it was 15 to 100 µM; in the series on MCF7, 15 to 100 µM; with FM3A it was 15 to 100 µM; in [1], 5 to 15 µM; in the series with A549, 15 to 100 µM. Moreover, the IC50 in the series on PC3 lay within 0.1 to 5 µM; in the series with human T-lymphocyte CEM it was 15 to 100 µM.
Consider `COC(=O)[C@H](CCSC)NP(=O)(OC[C@H]1O[C@@H](n2c(Cl)nc3c(N)ncnc32)C(O)C1O)Oc1ccccc1` (stereo partly drawn) [Z, 5′-([(Methyloxy-L-methionine-N-yl)phenyl]-phosphatyl) 8-chloroadenosine], for which the IC50 with Lovo was 15 to 100 µM; with Murine leukemia L1210 it was 15 to 100 µM; in the series on MCF7 it was 15 to 100 µM; in the series with FM3A it was more than 100 µM; in series [1] it was 15 to 100 µM; in the series on A549 it was more than 100 µM. Also, the IC50 in the series with PC3 and with human T-lymphocyte CEM was 15 to 100 µM each time.
Consider `CC(C)(C)COC(=O)C(C)(C)NP(=O)(OC[C@H]1O[C@@H](n2c(Cl)nc3c(N)ncnc32)C(O)C1O)Oc1ccccc1` (stereo partly shown) [Y, 5′-([(Neopentyloxy-2,2-dimethylglycin-N-yl)-phenyl]-phosphatyl) 8-chloroadenosine], for which the IC50 in the series on Lovo is 0.1 to 5 µM; in the series with Murine leukemia L1210 it was 15 to 100 µM; in the series on MCF7, 15 to 100 µM; in the series with FM3A it was 15 to 100 µM; in series [1], 15 to 100 µM; in the series with A549 it was more than 100 µM. In addition, the IC50 with PC3 lay within 0.1 to 5 µM; in the series with human T-lymphocyte CEM, 15 to 100 µM.
On to `C[C@H](NP(=O)(OC[C@H]1O[C@@H](n2c(Cl)nc3c(N)ncnc32)[C@H](O)[C@@H]1O)Oc1cccc2ccccc12)C(=O)OCc1ccccc1` (single isomer, unassigned) [Isomer A of Compound D], for which, in the series with KG1a cell line, the “cytotoxic potency compared in words” value was “significantly more potent”. Moreover, the “targeting of leukaemic/cancer stem cells in words” value in [2] is listed as “statistically significantly increased ability to target cancer stem cells”.
The matching figures for `Nc1ncnc2c1nc(Cl)n2[C@@H]1O[C@H](COP(=O)(NCC(=O)OCc2ccccc2)Oc2ccccc2)[C@@H](O)[C@H]1O` (single isomer, unassigned; isomer a) [Isomer A of Compound B]: “significantly more potent” and “statistically significantly increased ability to target cancer stem cells”.
Take `C[C@H](NP(=O)(OC[C@H]1O[C@@H](n2cnc3c(N)nc(Cl)nc32)CC1O)Oc1cccc2ccccc12)C(=O)OCc1ccccc1` (stereo partly shown) [Comparative compound 2]: the LD50 in the series on KG1a cell line amounted to 820 nM. In addition, in [2], the “Change relative to control (%)” value is reported as −0.5% and the “KG-1a (CD34+/CD38−/CD123+) % compartment” value was found to be 3.5%.
On the same counts, the results for `C[C@H](NP(=O)(OC[C@H]1O[C@@H](n2cnc3c(N)nc(Cl)nc32)[C@H](F)C1O)Oc1cccc2ccccc12)C(=O)OCc1ccccc1` (stereo partly shown) [Comparative compound 1] are 140 nM, −0.2% and 3.3%.
As for `CC(C)OC(=O)[C@H](C)NP(=O)(OC[C@H]1O[C@@H](n2c(Cl)nc3c(N)ncnc32)C(O)C1O)Oc1ccccc1` (stereo partly drawn) [W, 5′-([(Isopropyloxy-L-alanin-N-yl)-phenyl]-phosphatyl) 8-chloroadenosine], the IC50 in the series on Lovo lay within 0.1 to 5 µM; in the series on Murine leukemia L1210 it was 15 to 100 µM; in the series on MCF7 it was 15 to 100 µM; with FM3A, 15 to 100 µM; in series [1], 15 to 100 µM; with A549, 15 to 100 µM. Further, the figures for the IC50 in the series with PC3 and in the series on human T-lymphocyte CEM were 0.1 to 5 µM and 15 to 100 µM, respectively.
For `CC(C)[C@H](NP(=O)(OC[C@H]1O[C@@H](n2c(Cl)nc3c(N)ncnc32)C(O)C1O)Oc1ccccc1)C(=O)OCc1ccccc1` (stereo partly drawn) [AA, 5′-([(Benzyloxy-L-valin-N-yl)-phenyl]-phosphatyl) 8-chloroadenosine], the IC50 was 0.1 to 5 µM with Lovo; 15 to 100 µM with Murine leukemia L1210; 0.1 to 5 µM in the series on MCF7; 15 to 100 µM with FM3A; 5 to 15 µM in series [1]; 15 to 100 µM in the series with A549. The IC50 in the series with PC3 and with human T-lymphocyte CEM was 15 to 100 µM each time.

The values are drawn from patent US20190375778A1, “ADENOSINE DERIVATIVES FOR USE IN THE TREATMENT OF CANCER” (NuCana plc, priority 2016, published 2019).
